Experiments:
[1] = Stability in aqueous medium (dimethyl sulfoxide/Dulbecco's Modified Eagle Medium) by UV-Vis spectroscopy; format: physicochemical; settings: 5% dimethyl sulfoxide/95% Dulbecco's Modified Eagle Medium; for Relative variation of the maximum absorbance of the π→π* transitions: band 292-296 nm (λmax in column head); for Relative variation of the maximum absorbance of the charge transfer bands: band 358-400 nm (λmax in column head)
Experimental: (§1) The stability of the complexes 4-11 in organic and aqueous media was evaluated over 24 h by UV-Vis spectroscopy at room temperature, in dark, on a Jasco V-660 spectrometer using quartz cuvettes (1 cm optical path length). The electronic spectra (270-900 nm) were acquired at regular periods of time (0 h, 0.25 h, 0.5 h, 0.75 h, 1 h, 2 h, 3 h, 4 h, 5 h, 6 h, 24 h) for solutions of 100% dimethyl sulfoxide (complexes 4-11) and 5% dimethyl sulfoxide/95% Dulbecco's Modified Eagle Medium (complexes 4, 5 and 8-11) or 10% dimethyl sulfoxide/90% Dulbecco's Modified Eagle Medium (complexes 6 and 7) at concentrations ranging from 7.0×10^-5 M to 3.0×10^-4 M.

[2] = Stability in organic medium (dimethyl sulfoxide) by UV-Vis spectroscopy; format: physicochemical; settings: for Relative variation of the maximum absorbance of the π→π* transitions: band 289-300 nm (λmax in column head); for Relative variation of the maximum absorbance of the charge transfer bands: band 357-425 nm (λmax in column head)
Experimental: as §1

For COc1cc[n+]2c(c1)-c1cc(O)cc[n+]1[Ru-]2([CH]1C=CC=C1)[PH](c1ccccc1)(c1ccccc1)c1ccccc1.O=S(=O)([O-])C(F)(F)F (centres unmarked) [compound 10], the “Relative variation of the maximum absorbance of the π→π* transitions” value (“Relative variation … of the π→π* transitions” for short) ([1]; time 0 h) was 0.0%, the “Relative variation of the maximum absorbance of the charge transfer bands” value ([1]; time 0 h) was 0.0% and the “Relative variation … of the π→π* transitions” value ([1]; time 0.25 h) was 0.0%. The “Relative variation of the maximum absorbance of the charge transfer bands” value ([1]; time 0.25 h) was −0.8%, the “Relative variation … of the π→π* transitions” value ([1]; time 0.5 h) was −1.7% and the “Relative variation of the maximum absorbance of the charge transfer bands” value ([1]; time 0.5 h) was −0.7%. The “Relative variation … of the π→π* transitions” value ([1]; time 0.75 h) was −1.9%, the “Relative variation of the maximum absorbance of the charge transfer bands” value ([1]; time 0.75 h) was −1.0% and the “Relative variation … of the π→π* transitions” value ([1]; time 1 h) was −2.2%. For the same molecule, the “Relative variation of the maximum absorbance of the charge transfer bands” value ([1]; time 1 h) was −1.3%, the “Relative variation … of the π→π* transitions” value ([1]; time 2 h) was −3.1% and the “Relative variation of the maximum absorbance of the charge transfer bands” value ([1]; time 2 h) was −2.3%. The “Relative variation … of the π→π* transitions” value ([1]; time 3 h) was −4.1%, the “Relative variation of the maximum absorbance of the charge transfer bands” value ([1]; time 3 h) was −3.1% and the “Relative variation … of the π→π* transitions” value ([1]; time 4 h) was −5.1%. For the same molecule, the “Relative variation of the maximum absorbance of the charge transfer bands” value ([1]; time 4 h) was −3.6%, the “Relative variation … of the π→π* transitions” value ([1]; time 5 h) was −5.6% and the “Relative variation of the maximum absorbance of the charge transfer bands” value ([1]; time 5 h) was −4.3%. For the same molecule, the “Relative variation … of the π→π* transitions” value ([1]; time 6 h) was −6.0%, the “Relative variation of the maximum absorbance of the charge transfer bands” value ([1]; time 6 h) was −4.8% and the “Relative variation … of the π→π* transitions” value ([1]; time 24 h) was −7.0%. The “Relative variation of the maximum absorbance of the charge transfer bands” value ([1]; time 24 h) was −5.0%, the “Relative variation … of the π→π* transitions” value ([2]; time 0 h) was 0.0% and the “Relative variation of the maximum absorbance of the charge transfer bands” value ([2]; time 0 h) was 0.0%. The “Relative variation … of the π→π* transitions” value ([2]; time 0.25 h) was 0.0%, the “Relative variation of the maximum absorbance of the charge transfer bands” value ([2]; time 0.25 h) was 0.0% and the “Relative variation … of the π→π* transitions” value ([2]; time 0.5 h) was 0.0%. For the same molecule, the “Relative variation of the maximum absorbance of the charge transfer bands” value ([2]; time 0.5 h) was −0.2%, the “Relative variation … of the π→π* transitions” value ([2]; time 0.75 h) was −0.1% and the “Relative variation of the maximum absorbance of the charge transfer bands” value ([2]; time 0.75 h) was −0.3%. For the same molecule, the “Relative variation … of the π→π* transitions” value ([2]; time 1 h) was 0.9%, the “Relative variation of the maximum absorbance of the charge transfer bands” value ([2]; time 1 h) was 0.7% and the “Relative variation … of the π→π* transitions” value ([2]; time 2 h) was 1.5%. The “Relative variation of the maximum absorbance of the charge transfer bands” value ([2]; time 2 h) was 1.5%, the “Relative variation … of the π→π* transitions” value ([2]; time 3 h) was 2.5% and the “Relative variation of the maximum absorbance of the charge transfer bands” value ([2]; time 3 h) was 2.5%. The “Relative variation … of the π→π* transitions” value ([2]; time 4 h) was 3.0%, the “Relative variation of the maximum absorbance of the charge transfer bands” value ([2]; time 4 h) was 3.1% and the “Relative variation … of the π→π* transitions” value ([2]; time 5 h) was 3.0%. The “Relative variation of the maximum absorbance of the charge transfer bands” value ([2]; time 5 h) was 3.2%, the “Relative variation … of the π→π* transitions” value ([2]; time 6 h) was 2.8% and the “Relative variation of the maximum absorbance of the charge transfer bands” value ([2]; time 6 h) was 3.1%. For the same molecule, the “Relative variation … of the π→π* transitions” value ([2]; time 24 h) was 3.3% and the “Relative variation of the maximum absorbance of the charge transfer bands” value ([2]; time 24 h) was 4.2%.

For CCOC(=O)Oc1cc[n+]2c(c1)-c1cc(OC)cc[n+]1[Ru-]2([CH]1C=CC=C1)[PH](c1ccccc1)(c1ccccc1)c1ccccc1.O=S(=O)([O-])C(F)(F)F (centres unmarked) [compound 11], the “Relative variation … of the π→π* transitions” value ([1]; time 0 h) was 0.0%, the “Relative variation of the maximum absorbance of the charge transfer bands” value ([1]; time 0 h) was 0.0% and the “Relative variation … of the π→π* transitions” value ([1]; time 0.25 h) was −0.2%. For the same molecule, the “Relative variation of the maximum absorbance of the charge transfer bands” value ([1]; time 0.25 h) was −0.1%, the “Relative variation … of the π→π* transitions” value ([1]; time 0.5 h) was −0.3% and the “Relative variation of the maximum absorbance of the charge transfer bands” value ([1]; time 0.5 h) was 0.0%. The “Relative variation … of the π→π* transitions” value ([1]; time 0.75 h) was −0.2%, the “Relative variation of the maximum absorbance of the charge transfer bands” value ([1]; time 0.75 h) was 0.1% and the “Relative variation … of the π→π* transitions” value ([1]; time 1 h) was −0.2%. For the same molecule, the “Relative variation of the maximum absorbance of the charge transfer bands” value ([1]; time 1 h) was 0.1%, the “Relative variation … of the π→π* transitions” value ([1]; time 2 h) was −0.5% and the “Relative variation of the maximum absorbance of the charge transfer bands” value ([1]; time 2 h) was 0.1%. The “Relative variation … of the π→π* transitions” value ([1]; time 3 h) was −0.4%, the “Relative variation of the maximum absorbance of the charge transfer bands” value ([1]; time 3 h) was 0.1% and the “Relative variation … of the π→π* transitions” value ([1]; time 4 h) was −0.9%. For the same molecule, the “Relative variation of the maximum absorbance of the charge transfer bands” value ([1]; time 4 h) was 0.0%, the “Relative variation … of the π→π* transitions” value ([1]; time 5 h) was −0.7% and the “Relative variation of the maximum absorbance of the charge transfer bands” value ([1]; time 5 h) was 0.1%. The “Relative variation … of the π→π* transitions” value ([1]; time 6 h) was −0.4%, the “Relative variation of the maximum absorbance of the charge transfer bands” value ([1]; time 6 h) was 0.2% and the “Relative variation … of the π→π* transitions” value ([1]; time 24 h) was −1.0%. For the same molecule, the “Relative variation of the maximum absorbance of the charge transfer bands” value ([1]; time 24 h) was 0.4%, the “Relative variation of the maximum absorbance of the charge transfer bands” value ([2]; time 0 h) was 0.0% and the “Relative variation of the maximum absorbance of the charge transfer bands” value ([2]; time 0.25 h) was 0.0%. The “Relative variation of the maximum absorbance of the charge transfer bands” value ([2]; time 0.5 h) was 0.2%, the “Relative variation of the maximum absorbance of the charge transfer bands” value ([2]; time 0.75 h) was 0.1% and the “Relative variation of the maximum absorbance of the charge transfer bands” value ([2]; time 1 h) was 0.3%. For the same molecule, the “Relative variation of the maximum absorbance of the charge transfer bands” value ([2]; time 2 h) was 0.1%, the “Relative variation of the maximum absorbance of the charge transfer bands” value ([2]; time 3 h) was 0.0% and the “Relative variation of the maximum absorbance of the charge transfer bands” value ([2]; time 4 h) was −0.2%. For the same molecule, the “Relative variation of the maximum absorbance of the charge transfer bands” value ([2]; time 5 h) was −0.3%, the “Relative variation of the maximum absorbance of the charge transfer bands” value ([2]; time 6 h) was −0.3% and the “Relative variation of the maximum absorbance of the charge transfer bands” value ([2]; time 24 h) was 0.2%.
